For orientation: Ki means a measure of affinity in units of concentration, obtained from inhibition or displacement. A word on the pKb: it is −log10 of the Kb, conventionally taken in molar units.

Assay [1] addresses T1, Adrenergic receptor alpha-2 (Rattus norvegicus, UniProt P22086+P19328+P22909).
T1 sequence (P22086 whole entry): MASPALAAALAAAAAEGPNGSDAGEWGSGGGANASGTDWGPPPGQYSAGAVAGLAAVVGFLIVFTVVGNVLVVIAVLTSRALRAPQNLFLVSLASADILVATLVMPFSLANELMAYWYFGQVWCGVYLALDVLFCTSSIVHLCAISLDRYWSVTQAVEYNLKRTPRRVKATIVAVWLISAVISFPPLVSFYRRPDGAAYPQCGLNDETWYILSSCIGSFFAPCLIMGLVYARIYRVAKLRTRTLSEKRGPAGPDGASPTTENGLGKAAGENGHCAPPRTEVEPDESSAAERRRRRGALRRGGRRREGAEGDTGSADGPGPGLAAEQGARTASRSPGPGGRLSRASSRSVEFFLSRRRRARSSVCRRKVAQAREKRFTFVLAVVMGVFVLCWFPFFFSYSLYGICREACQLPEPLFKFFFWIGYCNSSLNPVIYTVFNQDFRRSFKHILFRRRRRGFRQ
T1 sequence (P19328 whole entry): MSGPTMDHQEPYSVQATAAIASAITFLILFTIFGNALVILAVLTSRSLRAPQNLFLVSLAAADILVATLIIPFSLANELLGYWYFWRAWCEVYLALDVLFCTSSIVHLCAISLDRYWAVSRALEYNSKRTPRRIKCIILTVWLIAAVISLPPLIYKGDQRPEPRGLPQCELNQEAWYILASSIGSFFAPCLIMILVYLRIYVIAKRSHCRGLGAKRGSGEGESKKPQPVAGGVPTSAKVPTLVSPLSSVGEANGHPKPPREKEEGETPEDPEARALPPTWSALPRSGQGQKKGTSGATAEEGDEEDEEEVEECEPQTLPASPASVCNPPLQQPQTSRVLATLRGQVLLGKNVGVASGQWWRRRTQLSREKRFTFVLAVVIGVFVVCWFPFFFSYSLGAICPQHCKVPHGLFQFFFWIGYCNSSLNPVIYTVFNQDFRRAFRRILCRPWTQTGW
T1 sequence (P22909 whole entry): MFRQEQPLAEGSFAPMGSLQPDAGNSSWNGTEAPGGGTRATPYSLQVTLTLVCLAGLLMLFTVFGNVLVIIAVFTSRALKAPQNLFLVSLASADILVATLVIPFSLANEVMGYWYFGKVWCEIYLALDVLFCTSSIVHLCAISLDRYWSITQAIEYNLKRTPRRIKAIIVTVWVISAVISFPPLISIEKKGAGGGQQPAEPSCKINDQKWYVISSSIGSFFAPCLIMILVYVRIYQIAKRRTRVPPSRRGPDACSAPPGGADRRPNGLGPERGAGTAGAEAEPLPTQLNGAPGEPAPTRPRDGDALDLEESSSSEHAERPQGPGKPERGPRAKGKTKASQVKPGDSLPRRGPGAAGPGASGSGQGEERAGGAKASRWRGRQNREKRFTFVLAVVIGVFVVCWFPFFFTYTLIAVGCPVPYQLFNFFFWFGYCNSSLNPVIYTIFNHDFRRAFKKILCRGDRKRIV
As to the kind of experiment: Displacement of [3H]clonidine from alpha2 adrenergic receptor in rat brain cerebral cortex after 25 mins by microbeta scintillation counting method. It is filed as tissue-based.

For assay [2], the species on record is Rattus norvegicus. As to the kind of experiment: Selectivity ratio of Ki for rat brain cerebral cortex alpha2 adrenergic receptor to Ki for rat brain cerebral cortex alpha1 adrenergic receptor.
Assay [3] deals with Adrenergic receptor alpha-1 (Rattus norvegicus) (UniProt P15823+P23944+P43140). As to the kind of experiment: Antagonist activity at alpha1 adrenergic receptor in Wistar rat aorta assessed as inhibition of naradrenaline-induced aortic contraction preincubated for 30 mins followed by naradrenaline stimulation for 3 hrs at 60 mins interval in presence of alpha2 adrenergic receptor blocker yohimbine and beta adrenergic receptor blocker propranolol.

The subject of assay [4] is Rattus norvegicus. As to the kind of experiment: Hypotensive activity in normotensive anesthetized Wistar rat assessed as systolic blood pressure at 1 mg/kg, iv measured 5 mins post dose (reference value: 107.4 to 148.3 mmHg). Format: functional.
Assay [5] relates to Rattus norvegicus. As to the kind of experiment: Hypotensive activity in normotensive anesthetized Wistar rat assessed as systolic blood pressure at 1 mg/kg, iv measured 10 mins post dose (reference value: 107.4 to 148.3 mmHg). Format: functional.
Assay [6] has as its system Rattus norvegicus. As to the kind of experiment: Hypotensive activity in normotensive anesthetized Wistar rat assessed as diastolic blood pressure at 1 mg/kg, iv measured 10 mins post dose (reference value: 81.6 to 115.2 mmHg). Format: functional.
In assay [7] the test system is Rattus norvegicus. As to the kind of experiment: Hypotensive activity in normotensive anesthetized Wistar rat assessed as systolic blood pressure at 1 mg/kg, iv measured 20 mins post dose (reference value: 107.4 to 148.3 mmHg). It is filed as functional.
Assay [8] relates to Rattus norvegicus. As to the kind of experiment: Hypotensive activity in normotensive anesthetized Wistar rat assessed as systolic blood pressure at 1 mg/kg, iv measured 30 mins post dose (reference value: 107.4 to 148.3 mmHg). Format: functional.
In assay [9] the test system is Rattus norvegicus. As to the kind of experiment: Hypotensive activity in normotensive anesthetized Wistar rat assessed as diastolic blood pressure at 1 mg/kg, iv measured 30 mins post dose (reference value: 81.6 to 115.2 mmHg). It is filed as functional.
The subject of assay [10] is Rattus norvegicus. As to the kind of experiment: Hypotensive activity in normotensive anesthetized Wistar rat assessed as diastolic blood pressure at 1 mg/kg, iv measured 60 mins post dose (reference value: 81.6 to 115.2 mmHg). It is filed as functional.
Assay [11] can be described thus: Antidepressant-like activity in albino Swiss (CD-1) mouse assessed as immobility time at 10 mg/kg, ip administered 30 mins prior to test measured for last 4 mins of 6 mins observation by forced swim test (reference value: 178.3 +/- 12.3 sec). It is filed as functional, organism-based.

Sequence of Adrenergic receptor alpha-1 (Rattus norvegicus) (P15823 whole entry, looked up): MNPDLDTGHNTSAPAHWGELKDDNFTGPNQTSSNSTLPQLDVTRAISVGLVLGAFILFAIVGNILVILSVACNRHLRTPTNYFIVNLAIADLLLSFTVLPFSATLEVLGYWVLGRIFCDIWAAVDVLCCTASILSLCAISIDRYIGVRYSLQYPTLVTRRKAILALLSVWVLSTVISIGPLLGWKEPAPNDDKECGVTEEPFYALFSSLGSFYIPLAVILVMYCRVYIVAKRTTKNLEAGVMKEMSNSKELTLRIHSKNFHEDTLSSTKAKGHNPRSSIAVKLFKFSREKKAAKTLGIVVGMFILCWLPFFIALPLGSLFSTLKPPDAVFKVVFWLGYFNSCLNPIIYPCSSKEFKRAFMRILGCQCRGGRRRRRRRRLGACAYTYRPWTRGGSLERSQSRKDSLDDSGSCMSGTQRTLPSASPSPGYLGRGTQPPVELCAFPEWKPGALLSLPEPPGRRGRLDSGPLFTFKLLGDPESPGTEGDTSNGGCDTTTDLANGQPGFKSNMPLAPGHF
Sequence of Adrenergic receptor alpha-1 (Rattus norvegicus) (P23944 whole entry, looked up): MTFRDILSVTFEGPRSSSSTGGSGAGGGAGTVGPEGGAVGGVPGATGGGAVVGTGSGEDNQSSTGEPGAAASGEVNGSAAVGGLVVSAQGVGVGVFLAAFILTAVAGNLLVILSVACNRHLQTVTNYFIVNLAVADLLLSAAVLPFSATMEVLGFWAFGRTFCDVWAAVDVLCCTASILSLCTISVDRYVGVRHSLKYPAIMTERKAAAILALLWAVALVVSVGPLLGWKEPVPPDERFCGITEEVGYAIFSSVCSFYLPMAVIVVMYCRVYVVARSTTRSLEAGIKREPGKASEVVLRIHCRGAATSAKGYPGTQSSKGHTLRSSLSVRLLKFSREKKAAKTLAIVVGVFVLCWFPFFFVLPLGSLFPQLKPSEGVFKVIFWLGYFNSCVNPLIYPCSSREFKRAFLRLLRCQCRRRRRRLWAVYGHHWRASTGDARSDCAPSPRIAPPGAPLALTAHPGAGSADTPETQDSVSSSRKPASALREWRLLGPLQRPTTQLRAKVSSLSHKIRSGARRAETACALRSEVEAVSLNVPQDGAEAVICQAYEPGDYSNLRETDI
Sequence of Adrenergic receptor alpha-1 (Rattus norvegicus) (P43140 whole entry, looked up): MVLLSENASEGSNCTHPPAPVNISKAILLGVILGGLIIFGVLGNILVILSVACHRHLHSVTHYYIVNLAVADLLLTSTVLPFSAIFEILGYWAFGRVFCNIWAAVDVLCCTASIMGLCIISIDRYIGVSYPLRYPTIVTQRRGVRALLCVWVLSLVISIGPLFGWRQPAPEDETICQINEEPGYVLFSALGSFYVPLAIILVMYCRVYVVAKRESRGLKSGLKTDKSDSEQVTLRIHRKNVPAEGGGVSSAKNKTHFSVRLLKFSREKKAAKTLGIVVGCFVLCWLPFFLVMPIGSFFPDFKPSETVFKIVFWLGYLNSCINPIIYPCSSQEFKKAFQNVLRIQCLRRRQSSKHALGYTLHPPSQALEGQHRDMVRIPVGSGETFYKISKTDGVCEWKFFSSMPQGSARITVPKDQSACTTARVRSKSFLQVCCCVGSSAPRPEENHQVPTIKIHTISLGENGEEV

In assay [1], `Cc1cccc(OCCCN2CCN(c3ccccc3)CC2)c1C.Cl.Cl` yielded an inhibition constant (Ki) of 0.81 µM. For the same compound, in the assay filed under Rattus norvegicus [2], the Ratio Ki amounted to 24.6. The inhibition result in assay [3] was “Dose-dependent effect”. Also, in assay [3], the negative-log Kb (pKb) came to 7.97. Besides, the Activity with Rattus norvegicus [4] is reported as 143.8 mmHg; in the assay on Rattus norvegicus [5] it was 138 mmHg; with Rattus norvegicus [6], 112.8 mmHg; in the assay with Rattus norvegicus [7], 138 mmHg; in the assay with Rattus norvegicus [8] it was 135.8 mmHg; with Rattus norvegicus [9], 109 mmHg. Besides, the Activity with Rattus norvegicus [10] was determined as 109.7 mmHg. In addition, the TIME in assay [11] amounted to 0.048 h.

`Cc1cccc(Cl)c1OCCCCN1CCN(c2ccccc2)CC1.Cl.Cl`: the Ki in assay [1] amounted to 0.5057 µM. The Ratio Ki in the assay filed under Rattus norvegicus [2] worked out at 8.48. Also, the inhibition result in [3] was “Dose-dependent effect”. Also, the pKb in assay [3] was found to be 8.37. In addition, the Activity with Rattus norvegicus [4] was 129.3 mmHg; in the assay with Rattus norvegicus [5] it was 127.7 mmHg; in the assay with Rattus norvegicus [6], 102.2 mmHg; in the assay on Rattus norvegicus [7] it was 126.2 mmHg; in the assay with Rattus norvegicus [8], 123.5 mmHg; in the assay with Rattus norvegicus [9], 97.7 mmHg. In the assay with Rattus norvegicus [10], the Activity was found to be 95.2 mmHg. Besides, the TIME in [11] came out at 0.0193 h.

The compound `COc1ccccc1N1CCN(CCOCCOc2cccc(C)c2C)CC1.Cl.Cl` showed a Ki in assay [1] of 0.893 µM. In the assay listed under Rattus norvegicus [2], the Ratio Ki amounted to 31.3. Moreover, the inhibition entry in assay [3] was “Dose-dependent effect”. In addition, in assay [3], the pKb is 8.76. The Activity in the assay with Rattus norvegicus [4] is recorded as 129.8 mmHg; in the assay with Rattus norvegicus [5] it was 131 mmHg; in the assay with Rattus norvegicus [6] it was 106 mmHg; in the assay with Rattus norvegicus [7], 130.4 mmHg; with Rattus norvegicus [8], 131 mmHg; in the assay with Rattus norvegicus [9], 105.6 mmHg. The Activity in the assay on Rattus norvegicus [10] is given as 104 mmHg. Besides, the TIME in [11] was found to be 0.0331 h.

In turn, `Cc1cccc(OCCN2CCN(c3ccccc3)CC2)c1C.Cl.Cl` showed an inhibition constant Ki in [1] of 0.289 µM. Further, the Ratio Ki in the assay filed under Rattus norvegicus [2] worked out at 1.82. Moreover, the inhibition entry in [3] is “Dose-dependent effect”. For the same compound, the negative-log Kb (pKb) in assay [3] amounted to 8.75. Further, the Activity stood at 99.8 mmHg in the assay with Rattus norvegicus [4]; 97.2 mmHg in the assay with Rattus norvegicus [5]; 75 mmHg in the assay with Rattus norvegicus [6]; 96 mmHg with Rattus norvegicus [7]; 93 mmHg in the assay on Rattus norvegicus [8]; 67.6 mmHg in the assay on Rattus norvegicus [9]. The Activity in the assay on Rattus norvegicus [10] was 67.6 mmHg. Besides, the TIME in assay [11] came out at 0.0446 h.

`COc1ccccc1N1CCN(CCCCOc2c(C)cccc2C)CC1.Cl` returned an inhibition constant Ki in [1] of 0.3705 µM. In addition, the Ratio Ki in the assay listed under Rattus norvegicus [2] turned out to be 15.8. Further, the inhibition entry in [3] was “Dose-dependent effect”. Also, the pKb in [3] is 8.54. In addition, the Activity was determined as 129.5 mmHg with Rattus norvegicus [4]; 126.2 mmHg in the assay on Rattus norvegicus [5]; 105.2 mmHg in the assay with Rattus norvegicus [6]; 124.3 mmHg with Rattus norvegicus [7]; 125.5 mmHg in the assay on Rattus norvegicus [8]; 102 mmHg in the assay with Rattus norvegicus [9]. Further, the Activity in the assay on Rattus norvegicus [10] was determined as 103.8 mmHg. Besides, the TIME in assay [11] stood at 0.0398 h.

The record behind these values is ChEMBL document CHEMBL3860091, “Synthesis and activity of newly designed aroxyalkyl or aroxyethoxyethyl derivatives of piperazine on the cardiovascular and the central nervous systems” (Bioorg Med Chem Lett, 2016).
